# Assays:
# [1] = GI Exposure PK in Mice; assay type: in vivo; settings: mouse, male BalbC mice, oral dose of 5 mg/kg
# Protocol: The test compound was wetted with ˜0.025% of Tween-20 and triturated in a mortar and pestle, then slowly 0.5% of methyl cellulose was added to make up the final volume to 7.25 mL. The BalbC test animals were subjected to anesthesia induced with a mixture of 5% isoflurane and 0.8-1.5 L/min 02 gas flow. The formulated test compound was then dosed via oral gavage. At various time points (0.5, 1, 2, 4, 6 and 8 h) blood samples (˜100 μL) were collected from portal vein (pre-hepatic) followed by cardiac puncture (circulating) into tubes containing 2% w/v aqueous K2 EDTA solution as per time points. Post blood sampling, the gastro intestine (GI) tissues were collected from the mice at the same time points. The GI tissue was dissected into different parts as duodenum, jejunum, ileum and colon. The separated tissues were washed by flushing with PBS via oral gavage needle to remove GI content. Post collection all the tissues were blotted, weighed and homogenized with PBS buffer (pH 7.4). The blood samples were immediately placed on ice and centrifuged within 30 min at 4° C. for 5 min at 8,000 rpm to obtain plasma. Plasma was transferred by pipettes to pre-labelled centrifuge tubes and immediately transferred to −80° C. until bioanalysis. Tissue samples were placed in pre-labelled container and all samples were kept in −80° C. until homogenized. The homogenate was stored immediately in −80° C. until bioanalysis was conducted. Study samples were thawed to room temperature and 50 μL of sample was aliquoted into pre-labeled vials. To these was added 400 μL of 100% acetonitrile containing an IS (100 ng/mL; warfarin, tolbutamide and loperamide). The vials were mixed well, vortexed for 5 min, followed by centrifugation for 5 min at 14000 rpm at 4° C. The supernatant was separated and same was injected on LC-MS/MS. Plasma and GI tissue levels of test compound were determined by LC-MS analysis using a standard curve in the text matrix. Individual concentration-time data were analyzed using Phoenix WinNonlin (Version 8.1) by the non-compartmental analysis (NCA) method.
# [2] = biological target: JAK3 (a.a. 781-1124) (Homo sapiens (Human), UniProt P52333); experiment: JAK3 enzyme activity assay (SRCtide phosphorylation, Caliper); assay type: biochemical; settings: 1 uM ATP; read-out: JAK3 Inhibition IC50
# [3] = portal vein plasma (pre-hepatic), Portal plasma
# Sequence of JAK3 (a.a. 781-1124) (P52333 781-1124): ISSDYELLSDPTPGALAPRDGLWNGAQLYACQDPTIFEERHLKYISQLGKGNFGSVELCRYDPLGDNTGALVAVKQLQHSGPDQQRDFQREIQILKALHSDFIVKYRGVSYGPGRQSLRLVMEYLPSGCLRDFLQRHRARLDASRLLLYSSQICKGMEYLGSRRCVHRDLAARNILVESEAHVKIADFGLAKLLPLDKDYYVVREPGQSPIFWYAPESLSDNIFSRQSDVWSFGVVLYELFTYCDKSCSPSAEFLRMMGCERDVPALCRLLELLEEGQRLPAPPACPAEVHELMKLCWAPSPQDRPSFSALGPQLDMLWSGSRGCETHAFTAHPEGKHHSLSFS
compound,measurement,setting,value
"CNC(=O)c1coc(-c2cnc3[nH]ccc3c2N[C@@H]2C[C@H](C)CN(C(=O)CC#N)C2)n1 [Example 31, 2-(4-(((3R,5S)-1-(2-cyanoacetyl)-5-methylpiperidin-3-yl)amino)-1H-pyrrolo[2,3-b]pyridin-5-yl)-N-methyloxazole-4-carboxamide]",Tmax,"[1]; circulating plasma (cardiac puncture), Circulating plasma",4 h
same,Cmax,"[1]; circulating plasma (cardiac puncture), Circulating plasma, two of three subjects, third BLQ",9.2 ng/mL
same,AUC,[1]; [3],17.2 ng·h/mL
same,Cmax,[1]; [3],11.3 ng/mL
same,Tmax,[1]; [3],0.5 h
same,AUC,[1]; Colon,6820 ng·h/mL
same,Cmax,[1]; Colon,1290 ng/g
same,Tmax,[1]; Colon,4 h
same,AUC,[1]; Duodenum,4660 ng·h/mL
same,Cmax,[1]; Duodenum,2880 ng/g
same,Tmax,[1]; Duodenum,0.5 h
same,AUC,[1]; Ileum,82500 ng·h/mL
same,Cmax,[1]; Ileum,43800 ng/g
same,Tmax,[1]; Ileum,2 h
same,AUC,[1]; Jejunum,57400 ng·h/mL
same,Cmax,[1]; Jejunum,37000 ng/g
same,Tmax,[1]; Jejunum,0.5 h
same,IC50,[2],≤ 10 nM

# From patent US11420966B2 (ACLARIS THERAPEUTICS, INC., priority 2019, dated 2022)
